Some results are limits rather than exact numbers.

Usually IC50 stands for the point on the concentration scale where inhibition reaches its midpoint.

Common to all, as to assay type: cell-based
One assay addresses T1, human TLR9 (Homo sapiens, UniProt Q9NR96).
T1 construct: host or cells: HEK-Blue cells
T1 sequence (Q9NR96 26-1032): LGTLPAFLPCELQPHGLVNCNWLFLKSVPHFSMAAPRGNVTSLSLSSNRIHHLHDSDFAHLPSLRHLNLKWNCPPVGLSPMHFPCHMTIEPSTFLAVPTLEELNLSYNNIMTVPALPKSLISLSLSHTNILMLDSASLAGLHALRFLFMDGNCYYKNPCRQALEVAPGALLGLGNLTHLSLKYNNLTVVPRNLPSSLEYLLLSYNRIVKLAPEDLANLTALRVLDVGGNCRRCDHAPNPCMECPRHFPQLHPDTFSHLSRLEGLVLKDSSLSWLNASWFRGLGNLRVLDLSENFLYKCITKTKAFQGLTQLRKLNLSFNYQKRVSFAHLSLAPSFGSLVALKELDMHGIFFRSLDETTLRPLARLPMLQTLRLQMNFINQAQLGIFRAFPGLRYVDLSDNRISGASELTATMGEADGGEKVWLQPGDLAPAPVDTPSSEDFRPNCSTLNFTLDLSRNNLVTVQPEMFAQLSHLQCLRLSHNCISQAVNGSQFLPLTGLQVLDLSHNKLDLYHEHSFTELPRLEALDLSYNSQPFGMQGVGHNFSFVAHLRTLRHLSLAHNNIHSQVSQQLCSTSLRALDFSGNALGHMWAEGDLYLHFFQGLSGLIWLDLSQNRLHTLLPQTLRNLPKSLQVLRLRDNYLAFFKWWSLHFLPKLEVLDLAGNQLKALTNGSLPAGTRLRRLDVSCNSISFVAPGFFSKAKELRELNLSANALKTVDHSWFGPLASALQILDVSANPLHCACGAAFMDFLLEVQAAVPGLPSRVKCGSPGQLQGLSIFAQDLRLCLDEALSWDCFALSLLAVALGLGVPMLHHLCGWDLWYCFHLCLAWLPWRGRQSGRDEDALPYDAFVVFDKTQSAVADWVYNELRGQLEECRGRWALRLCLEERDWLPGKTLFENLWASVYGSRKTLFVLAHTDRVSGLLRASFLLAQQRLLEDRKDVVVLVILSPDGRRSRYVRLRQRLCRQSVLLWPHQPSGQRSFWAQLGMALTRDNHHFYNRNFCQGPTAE
The experiment in a line: TLR9 inhibition reporter assay (HEK-Blue cells, SEAP reporter, ODN2006 stimulation). The settings on record: HEK-Blue cells overexpressing human TLR9, SEAP reporter, ODN2006 5 nM. A digest of the protocol:
(§1)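 Human TLR7/8/9 HEK-Blue reporter lines; dose range 0.05 nM–50 μM; 30 min RT preincubation; stimulus gardiquimod 7.5 μM / R848 15.9 μM / ODN2006 5 nM respectively; 22 h, 37 °C; SEAP detected colorimetrically.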
For orientation: A reporter such as luciferase makes a cellular process visible.

Another assay has as its target T2, human TLR7 (Homo sapiens, UniProt Q9NYK1).
T2 construct: host or cells: HEK-Blue cells
T2 sequence (Q9NYK1 27-1049): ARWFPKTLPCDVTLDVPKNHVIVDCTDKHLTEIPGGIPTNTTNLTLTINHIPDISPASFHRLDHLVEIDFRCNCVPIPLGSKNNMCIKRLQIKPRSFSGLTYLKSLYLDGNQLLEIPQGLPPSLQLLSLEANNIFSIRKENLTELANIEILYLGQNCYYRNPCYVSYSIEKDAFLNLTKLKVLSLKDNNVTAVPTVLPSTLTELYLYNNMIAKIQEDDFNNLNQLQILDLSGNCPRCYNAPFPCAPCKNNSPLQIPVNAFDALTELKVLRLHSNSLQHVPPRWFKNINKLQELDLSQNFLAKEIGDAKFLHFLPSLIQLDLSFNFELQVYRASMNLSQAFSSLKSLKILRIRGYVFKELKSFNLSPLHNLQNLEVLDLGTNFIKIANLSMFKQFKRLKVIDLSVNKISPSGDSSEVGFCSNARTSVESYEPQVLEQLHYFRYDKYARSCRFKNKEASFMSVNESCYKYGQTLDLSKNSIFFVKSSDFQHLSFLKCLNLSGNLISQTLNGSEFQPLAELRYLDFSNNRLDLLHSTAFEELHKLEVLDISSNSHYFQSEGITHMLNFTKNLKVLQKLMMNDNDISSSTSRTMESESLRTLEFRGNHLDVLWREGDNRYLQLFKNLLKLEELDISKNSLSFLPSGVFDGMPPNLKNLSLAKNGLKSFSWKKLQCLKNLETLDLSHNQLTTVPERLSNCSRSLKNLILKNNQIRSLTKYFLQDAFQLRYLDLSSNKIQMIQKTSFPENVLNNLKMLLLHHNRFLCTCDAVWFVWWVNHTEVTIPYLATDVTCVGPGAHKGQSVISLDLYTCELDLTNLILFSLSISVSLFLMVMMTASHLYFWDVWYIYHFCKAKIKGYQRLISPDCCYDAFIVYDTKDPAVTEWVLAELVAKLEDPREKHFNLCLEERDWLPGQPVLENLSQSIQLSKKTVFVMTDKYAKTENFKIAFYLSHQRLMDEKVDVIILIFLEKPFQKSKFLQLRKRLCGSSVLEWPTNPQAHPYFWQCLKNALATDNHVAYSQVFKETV
The experiment in a line: TLR7 inhibition reporter assay (HEK-Blue cells, SEAP reporter, gardiquimod stimulation). Particulars: HEK-Blue cells overexpressing human TLR7, SEAP reporter, gardiquimod 7.5 μM; read-out: TLR7 IC50. A digest of the protocol: as §1

The target of the next assay is T3, human TLR8 (Homo sapiens, UniProt Q9NR97).
T3 construct: host or cells: HEK-Blue cells
T3 sequence (Q9NR97 27-1041): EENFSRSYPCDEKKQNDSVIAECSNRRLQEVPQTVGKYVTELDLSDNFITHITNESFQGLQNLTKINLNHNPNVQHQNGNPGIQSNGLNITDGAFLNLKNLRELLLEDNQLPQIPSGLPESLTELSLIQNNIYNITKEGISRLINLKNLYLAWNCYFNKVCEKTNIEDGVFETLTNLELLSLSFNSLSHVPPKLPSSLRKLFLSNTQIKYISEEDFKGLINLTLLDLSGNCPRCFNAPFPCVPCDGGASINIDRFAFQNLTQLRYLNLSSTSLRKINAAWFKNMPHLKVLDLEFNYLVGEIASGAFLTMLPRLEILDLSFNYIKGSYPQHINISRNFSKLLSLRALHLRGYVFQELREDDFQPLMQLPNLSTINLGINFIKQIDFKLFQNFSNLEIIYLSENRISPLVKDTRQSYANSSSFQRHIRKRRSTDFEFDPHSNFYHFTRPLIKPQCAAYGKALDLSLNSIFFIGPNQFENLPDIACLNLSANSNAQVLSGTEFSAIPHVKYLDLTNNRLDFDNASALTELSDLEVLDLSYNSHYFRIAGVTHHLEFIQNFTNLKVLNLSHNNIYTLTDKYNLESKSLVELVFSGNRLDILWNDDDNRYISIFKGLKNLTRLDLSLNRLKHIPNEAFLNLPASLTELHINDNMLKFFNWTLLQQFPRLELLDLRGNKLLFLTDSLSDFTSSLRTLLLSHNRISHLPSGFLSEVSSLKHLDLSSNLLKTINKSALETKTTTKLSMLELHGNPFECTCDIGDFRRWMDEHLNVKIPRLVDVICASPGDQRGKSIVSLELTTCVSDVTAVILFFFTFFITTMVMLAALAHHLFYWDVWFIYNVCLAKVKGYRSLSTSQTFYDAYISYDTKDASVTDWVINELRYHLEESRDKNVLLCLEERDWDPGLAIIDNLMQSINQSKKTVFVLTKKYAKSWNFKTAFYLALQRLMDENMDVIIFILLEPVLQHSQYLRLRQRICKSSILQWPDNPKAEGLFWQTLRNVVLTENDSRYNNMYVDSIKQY
The experiment in a line: TLR8 inhibition reporter assay (HEK-Blue cells, SEAP reporter, R848 stimulation). The settings on record: HEK-Blue cells overexpressing human TLR8, SEAP reporter, R848 15.9 μM; read-out: TLR8 IC50. An outline of the steps: as §1

Regarding `Cc1c(-c2[nH]c3sc(C4CCC(NC5CCS(=O)(=O)C5)CC4)nc3c2C(C)C)cn2ncnc2c1C` (single isomer, unassigned) [Example 232, 3-((4-(5-(7,8-dimethyl-[1,2,4]triazolo[1,5-a]pyridin-6-yl)-6-isopropyl-4H-pyrrolo[3,2-d]thiazol-2-yl)cyclohexyl)amino)tetrahydrothiophene 1,1-dioxide], the IC50 at human TLR9 is more than 50000 nM; at human TLR7, 4.19 nM; on human TLR8 it was 7.87 nM.

As to `Cc1c(-c2[nH]c3sc(C4CCC(N5CC6(C5)CS(=O)(=O)C6)CC4)nc3c2C(C)C)cn2ncnc2c1C` (single isomer, unassigned) [Example 233, 6-(4-(5-(7,8-dimethyl-[1,2,4]triazolo[1,5-a]pyridin-6-yl)-6-isopropyl-4H-pyrrolo[3,2-d]thiazol-2-yl)cyclohexyl)-2-thia-6-azaspiro[3.3]heptane 2,2-dioxide], the 50% inhibitory concentration (IC50) at human TLR9 is more than 50000 nM; at human TLR7, 2.3 nM; on human TLR8 it was 0.59 nM.

As for `Cc1c(-c2[nH]c3sc(C4CCC(N5CC6(C5)CS(=O)(=O)C6)CC4)nc3c2C(C)C)cn2ncnc2c1C` (single isomer, unassigned) [Example 234, 6-(4-(5-(7,8-dimethyl-[1,2,4]triazolo[1,5-a]pyridin-6-yl)-6-isopropyl-4H-pyrrolo[3,2-d]thiazol-2-yl)cyclohexyl)-2-thia-6-azaspiro[3.3]heptane 2,2-dioxide], the IC50 against human TLR9 is more than 50000 nM; on human TLR7, 15.1 nM; at human TLR8, 59.8 nM.

Take `Cc1c(-c2[nH]c3sc(C4CCC(N5CC(O)(C(F)(F)F)C5)CC4)nc3c2C(C)C)cn2ncnc2c1C` (single isomer, unassigned) [Example 235, 1-(4-(5-(7,8-dimethyl-[1,2,4]triazolo[1,5-a]pyridin-6-yl)-6-isopropyl-4H-pyrrolo[3,2-d]thiazol-2-yl)cyclohexyl)-3-(trifluoromethyl)azetidin-3-ol]: the values for the IC50 at human TLR9, at human TLR7 and at human TLR8 were 16600 nM, 1.05 nM and 1.01 nM, respectively.

Take `Cc1c(-c2[nH]c3sc(C4CCC(N5CC(O)(C(F)(F)F)C5)CC4)nc3c2C(C)C)cn2ncnc2c1C` (single isomer, unassigned) [Example 236, 1-(4-(5-(7,8-dimethyl-[1,2,4]triazolo[1,5-a]pyridin-6-yl)-6-isopropyl-4H-pyrrolo[3,2-d]thiazol-2-yl)cyclohexyl)-3-(trifluoromethyl)azetidin-3-ol]: the figures for the IC50 on human TLR9, at human TLR7 and on human TLR8 were 25400 nM, 1.36 nM and 18.7 nM, respectively.

On to `Cc1c(-c2[nH]c3sc(C4CCC(N5CCC6(CC5)COC6)CC4)nc3c2C(C)C)cn2ncnc2c1C` (single isomer, unassigned) [Example 237, 7-(4-(5-(7,8-dimethyl-[1,2,4]triazolo[1,5-a]pyridin-6-yl)-6-isopropyl-4H-pyrrolo[3,2-d]thiazol-2-yl)cyclohexyl)-2-oxa-7-azaspiro[3.5]nonane], for which the IC50 against human TLR9 was 5490 nM; on human TLR7, 4.87 nM; on human TLR8 it was 0.29 nM.

Consider `Cc1c(-c2[nH]c3sc(C4CCC(N5CCC6(CC5)COC6)CC4)nc3c2C(C)C)cn2ncnc2c1C` (single isomer, unassigned) [Example 238, 7-(4-(5-(7,8-dimethyl-[1,2,4]triazolo[1,5-a]pyridin-6-yl)-6-isopropyl-4H-pyrrolo[3,2-d]thiazol-2-yl)cyclohexyl)-2-oxa-7-azaspiro[3.5]nonane], for which the IC50 was 5370 nM against human TLR9, 5.4 nM on human TLR7 and 5.96 nM on human TLR8.

Turning to `Cc1c(-c2[nH]c3sc(C4CCC(N5CC6(CCOCC6)C5)CC4)nc3c2C(C)C)cn2ncnc2c1C` (single isomer, unassigned) [Example 239, 2-(4-(5-(7,8-dimethyl-[1,2,4]triazolo[1,5-a]pyridin-6-yl)-6-isopropyl-4H-pyrrolo[3,2-d]thiazol-2-yl)cyclohexyl)-7-oxa-2-azaspiro[3.5]nonane], the results for the IC50 against human TLR9, on human TLR7 and at human TLR8 were 9920 nM, 1.96 nM and 0.27 nM, respectively.

For the origin of these results see patent US20230139171A1 (SITA Information Networking Computing UK Limited, priority 2019, published 2023).
